According to PubChem BioAssay (NCI):
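Exposure lasted 48 hours, with cells grown in 96-well plates and compounds tested at five concentrations. Definition used: TGI = concentration required for complete inhibition of growth.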

How the values were obtained:
Experiment in all cases: NCI anticancer screen, dose series, 48 h
LOX IMVI melanoma = test system: LOX IMVI melanoma
SNB-75 CNS = test system: SNB-75 CNS
UACC-257 melanoma = test system: UACC-257 melanoma
CAKI-1 renal = test system: CAKI-1 renal
HOP-62 NSCLC = test system: HOP-62 NSCLC
A498 renal = test system: A498 renal
K-562 leukemia = test system: K-562 leukemia
SK-OV-3 ovarian = test system: SK-OV-3 ovarian
OVCAR-5 ovarian = test system: OVCAR-5 ovarian
SW-620 colon = test system: SW-620 colon
UACC-62 melanoma = test system: UACC-62 melanoma
OVCAR-4 ovarian = test system: OVCAR-4 ovarian
IGROV1 ovarian = test system: IGROV1 ovarian
NCI-H226 lung = test system: NCI-H226 lung
NCI/ADR-RES ovarian = test system: NCI/ADR-RES ovarian
T-47D breast = test system: T-47D breast
RPMI-8226 leukemia = test system: RPMI-8226 leukemia
TK-10 renal = test system: TK-10 renal
OVCAR-3 ovarian = test system: OVCAR-3 ovarian
SNB-19 CNS = test system: SNB-19 CNS

| SMILES | TGI (LOX IMVI melanoma) | TGI (SNB-75 CNS) | TGI (UACC-257 melanoma) | TGI (CAKI-1 renal) | TGI (HOP-62 NSCLC) | TGI (A498 renal) | TGI (K-562 leukemia) | TGI (SK-OV-3 ovarian) | TGI (OVCAR-5 ovarian) | TGI (SW-620 colon) | TGI (UACC-62 melanoma) | TGI (OVCAR-4 ovarian) | TGI (IGROV1 ovarian) | TGI (NCI-H226 lung) | TGI (NCI/ADR-RES ovarian) | TGI (T-47D breast) | TGI (RPMI-8226 leukemia) | TGI (TK-10 renal) | TGI (OVCAR-3 ovarian) | TGI (SNB-19 CNS) |
| --- | --- | --- | --- | --- | --- | --- | --- | --- | --- | --- | --- | --- | --- | --- | --- | --- | --- | --- | --- | --- |
| CCOP(=O)(OCC)/C(=C\n1ccc(=O)[nH]c1=S)C(=O)OC | > 100 µM | > 100 µM | > 100 µM | > 100 µM | > 100 µM | > 100 µM | > 100 µM | > 100 µM | > 100 µM | > 100 µM | > 100 µM | > 100 µM | > 100 µM | > 100 µM | > 100 µM | > 100 µM | > 100 µM |  |  |  |
| Cc1cn(CC2(CO)CCC2)c(=O)[nH]c1=O | > 100 µM | > 100 µM | > 100 µM | > 100 µM | > 100 µM | > 100 µM | > 100 µM | > 100 µM | > 100 µM | > 100 µM | > 100 µM | > 100 µM | > 100 µM | > 100 µM | > 100 µM | > 100 µM | > 100 µM | > 100 µM | > 100 µM |  |
| NS(=O)(=O)c1ccc(N=Nc2ccc(O)cc2)cc1 | > 100 µM | 88.9 µM | > 100 µM | > 100 µM | > 100 µM | > 100 µM | > 100 µM | > 100 µM | > 100 µM | > 100 µM |  | > 100 µM | > 100 µM | 89.1 µM | > 100 µM | > 100 µM | > 100 µM | > 100 µM | > 100 µM | > 100 µM |
| CC(=O)OCCCCn1nncc1Cn1ccc(=O)n(Cc2cnnn2CCCCOC(C)=O)c1=O | > 100 µM | > 100 µM | > 100 µM | > 100 µM | > 100 µM | > 100 µM |  | > 100 µM | > 100 µM | > 100 µM |  | > 100 µM | > 100 µM | > 100 µM | > 100 µM | > 100 µM | > 100 µM | > 100 µM | > 100 µM | > 100 µM |
| COc1ccc(/C(=N/OCCCC(=O)O)c2cccs2)cc1 | > 100 µM | > 100 µM | > 100 µM | > 100 µM | > 100 µM | > 100 µM | > 100 µM | > 100 µM | > 100 µM | > 100 µM | > 100 µM | > 100 µM |  | > 100 µM | > 100 µM | > 100 µM | > 100 µM | > 100 µM | > 100 µM | > 100 µM |
| C/C(CC(O)(C(F)(F)F)C(F)(F)F)=N\NC(N)=S | > 10 µM | > 10 µM | > 10 µM | > 10 µM | > 10 µM | > 10 µM | > 10 µM | > 10 µM |  | > 10 µM | > 10 µM | > 10 µM | > 10 µM | > 10 µM | > 10 µM | > 10 µM | > 10 µM | > 10 µM | > 10 µM | > 10 µM |
| CS(=O)(=O)c1ccc(C(=O)O[C@@H]2C(=O)N3CC[C@H]4OC(O)[C@@H]2[C@H]43)cc1 (stereo partly specified) | > 100 µM | > 100 µM | > 100 µM | > 100 µM | > 100 µM | > 100 µM | > 100 µM | > 100 µM | > 100 µM | > 100 µM | > 100 µM | > 100 µM |  | > 100 µM | > 100 µM | > 100 µM | > 100 µM | > 100 µM | > 100 µM | > 100 µM |
| CCc1cc2c(cc1C(=O)CCC(=O)O)CC1(C2)Cc2cc(CC)c(C(=O)CCC(=O)O)cc2C1 | > 100 µM | > 100 µM | > 100 µM | > 100 µM | > 100 µM | > 100 µM | > 100 µM | > 100 µM | > 100 µM | > 100 µM |  | > 100 µM | > 100 µM | > 100 µM | > 100 µM | > 100 µM | > 100 µM | > 100 µM | > 100 µM | > 100 µM |
| COC(=O)c1ccc(Oc2nc3ccc(C(F)(F)F)cc3nc2-c2ccccc2)cc1 | > 100 µM | > 100 µM | > 100 µM | > 100 µM | > 100 µM | > 100 µM | > 100 µM | > 100 µM | > 100 µM | > 100 µM | > 100 µM | > 100 µM | > 100 µM | > 100 µM | > 100 µM | > 100 µM | > 100 µM | > 100 µM | > 100 µM |  |
| Cn1c2ccccc2c2c3c(c4c5ccccc5n(C)c4c21)C(=O)N(Cc1ccccc1)C3=O | > 100 µM | > 100 µM | > 100 µM | > 100 µM | > 100 µM | > 100 µM | > 100 µM | > 100 µM | > 100 µM | > 100 µM | > 100 µM | > 100 µM | > 100 µM | > 100 µM | > 100 µM | > 100 µM | > 100 µM | > 100 µM |  | > 100 µM |
| O=C1C2CCCC2N1Cc1ccccc1 (stereo unspecified) | > 100 µM | > 100 µM | > 100 µM | > 100 µM | > 100 µM | > 100 µM | > 100 µM | > 100 µM | > 100 µM | > 100 µM | > 100 µM | > 100 µM | > 100 µM | > 100 µM | > 100 µM | > 100 µM | > 100 µM | > 100 µM | > 100 µM |  |
